# Source: PubChem BioAssay (NCI)
#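 A five-concentration, 48-hour dose response in 96-well plates underlies each endpoint, interpolated linearly between surrounding concentrations. TGI denotes the concentration required for complete inhibition of growth.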
# Columns and labels:
# Experiment in all cases: inhibition of tumour cell growth, NCI panel, 48 h
# [1] = system: SK-OV-3 ovarian
# [2] = system: SK-MEL-5 melanoma
# [3] = system: SF-539 CNS
# [4] = system: OVCAR-3 ovarian
# [5] = system: SF-295 CNS
# [6] = system: OVCAR-8 ovarian
# [7] = system: T-47D breast
# [8] = system: NCI-H23 lung
# [9] = system: EKVX NSCLC
# [10] = system: SK-MEL-28 melanoma
# [11] = system: MDA-N
# [12] = system: OVCAR-5 ovarian
# [13] = system: UACC-62 melanoma
# [14] = system: MDA-MB-231 breast
# [15] = system: CCRF-CEM leukemia
# [16] = system: M14 melanoma
# [17] = system: HOP-62 NSCLC
# [18] = system: BT-549 breast
# [19] = system: SNB-19 CNS
# [20] = system: HCT-15 colon
Compound,TGI [1],TGI [2],TGI [3],TGI [4],TGI [5],TGI [6],TGI [7],TGI [8],TGI [9],TGI [10],TGI [11],TGI [12],TGI [13],TGI [14],TGI [15],TGI [16],TGI [17],TGI [18],TGI [19],TGI [20]
N/C(=N\N=C\c1c[nH]c2cc(C(F)(F)F)ccc2c1=O)NO,> 10 µM,> 10 µM,> 10 µM,> 10 µM,> 10 µM,> 10 µM,> 10 µM,> 10 µM,> 10 µM,> 10 µM,> 10 µM,> 10 µM,> 10 µM,> 10 µM,> 10 µM,> 10 µM,> 10 µM,> 10 µM,> 10 µM,> 10 µM
CC(=O)Nc1ccc(CNc2cc(=O)n(C)c(=O)[nH]2)cc1,> 100 µM,> 100 µM,> 100 µM,> 100 µM,> 100 µM,> 100 µM,> 100 µM,> 100 µM,> 100 µM,> 100 µM,> 100 µM,> 100 µM,> 100 µM,> 100 µM,> 100 µM,> 100 µM,> 100 µM,> 100 µM,> 100 µM,> 100 µM
O=c1oc2nc(-c3ccccc3)cc(C(F)(F)F)c2n1Cc1ccccc1,> 100 µM,> 100 µM,> 100 µM,> 100 µM,> 100 µM,> 100 µM,> 45 µM,> 59.6 µM,> 100 µM,> 100 µM,2.68 µM,> 100 µM,> 100 µM,> 100 µM,> 26.1 µM,> 82.9 µM,> 100 µM,> 100 µM,> 100 µM,> 100 µM
COC(=O)Nc1nc2ccc(S(=O)(=O)n3nnc4ccccc43)cc2[nH]1,41.2 µM,> 100 µM,24.4 µM,> 100 µM,90.7 µM,> 100 µM,> 100 µM,> 100 µM,> 100 µM,> 100 µM,> 100 µM,> 100 µM,> 100 µM,> 100 µM,> 100 µM,> 100 µM,51.2 µM,48.1 µM,> 100 µM,> 100 µM
COC(=O)C1C(OC(=O)C(Cl)(c2ccccc2)c2ccccc2)CC2CCC1N2C (stereo not given),> 100 µM,> 100 µM,> 100 µM,> 100 µM,> 100 µM,> 100 µM,> 100 µM,> 100 µM,> 100 µM,> 100 µM,> 100 µM,> 100 µM,> 100 µM,> 100 µM,> 100 µM,> 100 µM,> 100 µM,> 100 µM,> 100 µM,> 100 µM
